Article PMC12168975 (Drug Design, Development and Therapy, 2025)
Structures can show the parent of a compound that is named as a salt. Where two headings read alike, the source gives them in different places.

Assays:
[1] = poor solubility and permeability; cited from earlier work
[2] = cited from earlier work
[3] = Stability of simulated plasma; format: physicochemical, rat; conditions: simulated plasma samples; freeze-thaw cycles, room temperature storage and autosampler storage; found to be stable
[4] = Pharmacokinetic drug-drug interaction study of BBR, TOFA and FIGA in rats; format: in vivo, Sprague-Dawley rats
[5] = cited from earlier work; remark: listed apart in the source
[6] = FIGA co-administered with itraconazole
[7] = FIGA co-administered with rifampin
[8] = FIGA combined with berberine hydrochloride compared to FIGA alone
[9] = TOFA combined with BBR compared to TOFA alone

| relative errors (RE %) of stability assessment [3] | effect of concomitant TOFA and FIGA on the pharmacokinetic parameters of BBR ([4]; BBR with vs without TOFA or FIGA) | decrease in CL [4, 8] | decrease in Tmax [4, 8] | increase in AUC(0-t) [4, 8] | increase in Cmax [4, 8] | decrease in AUC(0-t) [4, 9] | increase in CL [4, 9] | increase in time to peak concentration [4, 9] | Compound | Biopharmaceutics Classification System class [1] | oral bioavailability ([2]; ref 20) | oral bioavailability ([2]; ref 35) | increase of Cmax [5, 6] | increase of bioavailability [5, 6] | reduction of Cmax [5, 7] | reduction of bioavailability [5, 7] |
| --- | --- | --- | --- | --- | --- | --- | --- | --- | --- | --- | --- | --- | --- | --- | --- | --- |
| less than 15.0% | no significant differences |  |  |  |  |  |  |  | COc1ccc2cc3[n+](cc2c1OC)CCc1cc2c(cc1-3)OCO2 [BBR, berberine hydrochloride] | Class IV | 5% | lower than 5% |  |  |  |  |
| less than 15.0% |  | 1.64 fold | 2.09 fold | 1.67 fold | 2.26 fold |  |  |  | O=C(Nc1nc2cccc(-c3ccc(CN4CCS(=O)(=O)CC4)cc3)n2n1)C1CC1 [FIGA, Filgotinib] |  |  |  | 64% | 45% | 26% | 27% |
| less than 15.0% |  |  |  |  |  | 1.76 fold | 1.63 fold | 2.49 fold | C[C@@H]1CCN(C(=O)CC#N)C[C@@H]1N(C)c1ncnc2[nH]ccc12 [TOFA, Tofacitinib] |  |  |  |  |  |  |  |
